Test results as given in US10087192B2, “2-(het)aryl-substituted fused bicyclic heterocycle derivatives as pesticides” (BAYER CROPSCIENCE AKTIENGESELLSCHSAFT, priority 2015, dated 2018).

How the values were obtained:
Type in all cases: in vivo
Phaedon cochleariae = Phaedon cochleariae spray test; settings: after 7 days, larvae on Chinese cabbage leaf discs
Protocol: Phaedon cochleariae—Spray Test
Solvent: 78.0 parts by weight of acetone • • 1.5 parts by weight of dimethylformamide
Emulsifier: alkylaryl polyglycol ether
To produce a suitable preparation of active compound, 1 part by weight of active compound is dissolved using the stated parts by weight of solvent and made up with water containing an emulsifier concentration of 1000 ppm until the desired concentration is attained. To produce further test concentrations, the preparation is diluted with emulsifier-containing water.
After 7 days, the efficacy in % is determined. 100% means that all the beetle larvae have been killed; 0% means that no beetle larvae have been killed.

Myzus persicae = Myzus persicae spray test (Chinese cabbage leaf discs); settings: after 6 days
Protocol: Myzus persicae—Spray Test Solvent: 78 parts by weight of acetone • • 1.5 parts by weight of dimethylformamide Emulsifier: alkylaryl polyglycol ether […] To produce further test concentrations, the preparation is diluted with emulsifier-containing water. Discs of Chinese cabbage leaves (Brassica pekinensis) infested by all stages of the green peach aphid (Myzus persicae) are sprayed with an active compound preparation of the desired concentration.

Spodoptera frugiperda = Spodoptera frugiperda spray test (maize leaf discs); settings: 500 g/ha, after 7 days, caterpillars on maize leaf discs
Protocol: Spodoptera frugiperda—Spray Test Solvent: 78.0 parts by weight of acetone • • 1.5 parts by weight of dimethylformamide Emulsifier: alkylaryl polyglycol ether […] To produce further test concentrations, the preparation is diluted with emulsifier-containing water. Leaf discs of maize (Zea mays) are sprayed with an active compound preparation of the desired concentration and, after drying, populated with caterpillars of the armyworm (Spodoptera frugiperda).

Lucilia cuprina = Lucilia cuprina test; settings: 100 ppm, after 2 days, L1 larvae
Protocol: Solvent: dimethyl sulphoxide
To produce a suitable preparation of active compound, 10 mg of active compound are mixed with 0.5 ml of dimethyl sulphoxide, and the concentrate is diluted with water to the desired concentration.
About 20 L1 larvae of the Australian sheep blowfly (Lucilia cuprina) are transferred into a test vessel containing minced horsemeat and the active compound preparation of the desired concentration.
After 2 days, the kill in % is determined. 100% means that all the larvae have been killed; 0% means that no larvae have been killed.

Ctenocephalides felis = Ctenocephalides felis oral test; settings: 100 ppm in citrated cattle blood, after 2 days
Text: Ctenocephalides felis—Oral Test Solvent: dimethyl sulphoxide […] Dilution with citrated cattle blood gives the desired concentration. About 20 unfed adult cat fleas (Ctenocephalides felis) are placed into a chamber which is closed at the top and bottom with gauze. A metal cylinder whose bottom end is closed with parafilm is placed onto the chamber. The cylinder contains the blood/active compound preparation, which can be imbibed by the fleas through the parafilm membrane.

SMILES | efficacy (Phaedon cochleariae; 500 g/ha) | efficacy (Myzus persicae; 500 g/ha) | efficacy (Spodoptera frugiperda) | further results
CCS(=O)(=O)c1ccc(-n2ccn(C)c2=O)nc1-c1nc2cc(C(F)(F)F)ncc2n1C [Example 39] | 100% | – | – | efficacy (Myzus persicae; 20 g/ha): 90%
CCS(=O)(=O)c1ccc(N2CCSC2=O)nc1-c1nc2cc(C(F)(F)F)ncc2n1C [Example 42] | 100% | 90% | – | –
CCS(=O)(=O)c1ccc(-n2nnn(C)c2=O)nc1-c1nc2cc(C(F)(F)F)ncc2n1C [Example 46] | 100% | – | 100% | –
CCS(=O)(=O)c1ccc(-n2ccc(CSC)n2)nc1-c1nc2cc(C(F)(F)F)ncc2n1C [Example 47] | 100% | – | – | –
CCS(=O)(=O)c1ccc(-n2nc(C)[nH]c2=O)nc1-c1nc2cc(C(F)(F)F)ncc2n1C [Example 48] | 83% | – | 100% | –
CCS(=O)(=O)c1ccc(N2CCSC2)nc1-c1nc2cc(C(F)(F)F)ncc2n1C [Example 50] | 100% | 100% | – | –
CCS(=O)(=O)c1ccc(-n2nnn(CC(F)(F)F)c2=O)nc1-c1nc2cc(C(F)(F)F)ncc2n1C [Example 52] | 100% | 90% | – | –
CCS(=O)(=O)c1ccc(-n2ccc(C3CC3)n2)nc1-c1nc2cc(C(F)(F)F)ncc2n1C [Example 53] | 100% | 90% | 100% | efficacy (kill) (Lucilia cuprina): 100%; efficacy (kill) (Ctenocephalides felis): 100%
CCS(=O)(=O)c1ccc(-n2nnc(C(F)(F)F)n2)nc1-c1nc2cc(C(F)(F)F)ncc2n1C [Example 55] | 100% | 90% | 100% | –
CCS(=O)(=O)c1ccc(-n2nnn(CC(F)(F)C(F)(F)F)c2=O)nc1-c1nc2cc(C(F)(F)F)ncc2n1C [Example 56] | 100% | 100% | 100% | –
CCS(=O)(=O)c1ccc(-n2c(SC)nn(C)c2=O)nc1-c1nc2cc(C(F)(F)F)ncc2n1C [Example 58] | 83% | – | – | –
CCS(=O)(=O)c1ccc(-n2cc(CS(C)(=O)=O)cn2)nc1-c1nc2cc(C(F)(F)F)ncc2n1C [Example 60] | 100% | – | – | efficacy (kill) (Lucilia cuprina): 95%; efficacy (kill) (Ctenocephalides felis): 100%
CCS(=O)(=O)c1ccc(-c2ccccn2)nc1-c1nc2cc(C(F)(F)F)ncc2n1C [Example 71] | 100% | – | 100% | –
CCS(=O)(=O)c1ccc(-c2cccnc2)nc1-c1nc2cc(C(F)(F)F)ncc2n1C [Example 72] | – | 90% | – | efficacy (Phaedon cochleariae; 100 g/ha): 83%
CCS(=O)(=O)c1ccc(-c2cc[nH]c2)nc1-c1nc2cc(C(F)(F)F)ncc2n1C [Example 73] | 100% | 90% | – | –
CCS(=O)(=O)c1ccc(-c2ccn[nH]2)nc1-c1nc2cc(C(F)(F)F)ncc2n1C [Example 75] | 100% | – | 100% | –
CCS(=O)(=O)c1ccc(-c2cc(Cl)cs2)nc1-c1nc2cc(C(F)(F)F)ncc2n1C [Example 77] | – | – | 100% | –
CCS(=O)(=O)c1ccc(-c2cnn(C)c2)nc1-c1nc2cc(C(F)(F)F)ncc2n1C [Example 83] | 100% | 90% | 100% | –
CCS(=O)(=O)c1ccc(-c2cn[nH]c2)nc1-c1nc2cc(C(F)(F)F)ncc2n1C [Example 84] | 83% | – | 100% | –
CCS(=O)(=O)c1ccc(-c2sccc2Cl)nc1-c1nc2cc(C(F)(F)F)ncc2n1C [Example 85] | – | – | 100% | –
